# In patent US20240117417A1, “CELL ENGINEERING COMPOSITIONS AND METHODS USING FLUOROGENIC OLIGONUCLEOTIDE SIGNALING PROBES AND FLOW CYTOMETRY” (Secondcell Bio, LLC, priority 2021, published 2024):
# pEC50: −log10 of the molar value. Counter-ions that a name gives are not always drawn.
# System: CFTR
# Experiment: functional cell-based assay of the CFTR cell line (response to Forskolin)
# Details: FIG. 22A left panel, read-out: EC50 value, dose-response curve for the CFTR cell line
# Procedure: Production of cell lines: Each gene of interest was subcloned into an independent mammalian expression vector containing a detection tag and drug selectable marker and transfected into HEK293T and CHO cells cultured using DMEM supplemented with 50 mL fetal bovine serum, a 4 mM L-Glutamine, 10 mM Hepes pH 7.4. After 1 to 3 days cells were transferred to fresh media containing mild selective pressure for 7 to 14 days. On the day of the experiment, each well of four to six 24-well tissue culture plates was plated with 200 ul to 400 ul of transfected cells at 1.25 to 2×10^6 cells/mL in serum-free media and exposed to differentially-labeled signaling probes that can hybridize with the expression products. […]
# (§1) Cell-based Assays: Functional testing using fluorescent cell-based assays in the absence of any antibiotic-mediated selectable pressure was performed over time (typically for at least 4 to 6 weeks) to identify inherently stable clones. Commonly available fluorescent membrane potential and calcium flux kits and reagents were used for fluorescent cell-based assays in 96-well and 384-well plates using the Molecular Devices FLIPR 3 and Hamamatsu FDSS 6000 plate readers as described (Shekdar 2011; Shekdar and Sawchuk 2012; Shekdar and Venkatachalan 2012, Shekdar 2017). […] Currents were measured using the whole-cell configuration. […]
row,Compound,pEC50
1,C=C[C@@]1(C)CC(=O)[C@]2(O)[C@@]3(C)[C@@H](O)CCC(C)(C)[C@@H]3[C@H](O)[C@H](OC(C)=O)[C@@]2(C)O1 [Forskolin],6.59

# System: GABAA receptor ion channel subunit combinations α1β3γ2s, α2β3γ2s, α3β3γ2s or α5β3γ2s
# Experiment: HTS of LOPAC library on the panel of GABAA cell lines, fluorescent membrane potential cell-based assay
# Details: not given
# Procedure: Production of cell lines: Each gene of interest was subcloned into an independent mammalian expression vector containing a detection tag and drug selectable marker and transfected into HEK293T and CHO cells cultured using DMEM supplemented with 50 mL fetal bovine serum, a 4 mM L-Glutamine, 10 mM Hepes pH 7.4. After 1 to 3 days cells were transferred to fresh media containing mild selective pressure for 7 to 14 days. On the day of the experiment, each well of four to six 24-well tissue culture plates was plated with 200 ul to 400 ul of transfected cells at 1.25 to 2×10^6 cells/mL in serum-free media and exposed to differentially-labeled signaling probes that can hybridize with the expression products. For each well, 1.7 to 2.5 uL of each probe at a concentration of 2.5 to 5 uM was added to 50 uL of serum free media in tube A and 0.3 to 0.75 uL of transfection reagent, using Lipofectamine for HEK cells (Thermo Fisher 18324) and jetPEI for CHO (Polyplus Transfection 101) was added to tube B. The contents of tubes A and B were mixed and incubated at room temperature for 25 to 30 minutes prior to addition to the well. Following a 1 to 2 hour incubation at 37° C. in a tissue culture incubator, serum-free media was added to the well up to a total volume of 1 mL. The plates were spun at 2,000 RPM for 4 minutes. 750 uL of media was aspirated and replaced with 250 uL of fresh serum-free media. The cells were incubated for an additional 2 to 2.5 hours then used to isolate individual positive cells using Beckman Coulter Epic Altra or Becton Dickinson FACS Aria flow cytometers.
# (§2) Cell-based Assays: Functional testing using fluorescent cell-based assays in the absence of any antibiotic-mediated selectable pressure was performed over time (typically for at least 4 to 6 weeks) to identify inherently stable clones. Commonly available fluorescent membrane potential and calcium flux kits and reagents were used for fluorescent cell-based assays in 96-well and 384-well plates using the Molecular Devices FLIPR 3 and Hamamatsu FDSS 6000 plate readers as described (Shekdar 2011; Shekdar and Sawchuk 2012; Shekdar and Venkatachalan 2012, Shekdar 2017). Electrophysiology of ion channel cell lines was obtained using the Nanion Technologies Patchliner patch clamp system. The patch clamp recordings were conducted according to Nanion's standard procedure (Obergrussberger 2014). Currents were measured using the whole-cell configuration. The extracellular solution contained the following: 140 mM NaCl, 4 mM KCl, 1 mM MgCl2, 2 mM CaCl2), 5 mM glucose, 10 mM Hepes, pH 7.4 (adjusted with NaOH). The intracellular solution for sodium current recordings contained the following: 50 mM CsCl, 10 mM NaCl, 60 mM CsF, 20 mM EGTA, 10 mM Hepes, pH 7.2 (adjusted with CsOH). For transient transfection studies, Fugene 6 was used to transfect expression plasmid into cells cultured as above and cells were assayed three days post-transfection.
row,Compound,HTS hit: activated at least one of the GABAA cell lines at least as much as GABA itself
1,CC(C)c1cccc(C(C)C)c1O [Propofol],activated at least one of the cell lines at least as much as GABA itself
2,C[C@]12CC[C@@H](O)C[C@@H]1CC[C@@H]1[C@@H]2CC[C@]2(C)C(=O)CC[C@@H]12 [Androsterone],identified

# Same assay, conditions: LOPAC (Sigma 1280) screen on panel of four GABAA cell lines
row,Compound,HTS hit: activated at least one of the GABAA cell lines at least as much as GABA itself
1,CCCCNc1c(C(=O)OCC)c(C)nc2c1cnn2CC [Tracazolate],activated at least one of the cell lines at least as much as GABA itself
2,NCCCC(=O)O [GABA],activated at least one of the cell lines at least as much as GABA itself
3,Ivermectin,identified
4,COc1cc(/C=C(\C#N)C(=O)c2ccc(O)c(O)c2)cc(I)c1O [I-OMe-Tyrphostin AG 538],identified
5,CC(C)(C)c1cc(C=C(C#N)C#N)cc(C(C)(C)C)c1O [Tyrphostin A9],identified
6,O=S(=O)(O)C1CCNCC1 [Piperidine-4-sulphonic acid],activated at least one of the cell lines at least as much as GABA itself
7,OCCN(CCO)c1nc(N2CCCCC2)c2nc(N(CCO)CCO)nc(N3CCCCC3)c2n1 [Dipyridamole],identified
8,NCc1cc(=O)[nH]o1 [Muscimol hydrobromide],activated at least one of the cell lines at least as much as GABA itself
9,CN1C(=O)CCS(=O)(=O)C1c1ccc(Cl)cc1 (centres unmarked) [Chlormezanone],identified
10,CC(=O)[C@H]1CC[C@H]2[C@@H]3CC[C@H]4C[C@H](O)CC[C@]4(C)[C@H]3CC[C@]12C [5-alpha-pegnan-3alpha-ol-20-one],activated at least one of the cell lines at least as much as GABA itself
11,"C[C@]12CC[C@@H](O)C[C@@H]1CC[C@@H]1[C@@H]2CC[C@]2(C)[C@@H](C(=O)CO)CC[C@@H]12 [3-alpha, 21-dihydroxy-5-alpha-pregnan-20-one]",activated at least one of the cell lines at least as much as GABA itself
12,O=C(O)C1=CCNCC1 [Isoguvacine hydrochloride],activated at least one of the cell lines at least as much as GABA itself
13,"CC(=O)[C@H]1CC[C@H]2[C@@H]3CC[C@H]4C[C@H](O)CC[C@]4(C)[C@H]3C(=O)C[C@]12C [5-alpha-pregnan-3alpha-ol-11,20-dione]",activated at least one of the cell lines at least as much as GABA itself
14,O=C(Nc1ccc([N+](=O)[O-])cc1Cl)c1cc(Cl)ccc1O [Niclosamide],identified

# Molecular target: T1, αβγ-ENaC (Homo sapiens, UniProt P37088+P51168+P51170)
# T1 construct: expressed in transfected cells
# T1 sequence (P51170 whole entry): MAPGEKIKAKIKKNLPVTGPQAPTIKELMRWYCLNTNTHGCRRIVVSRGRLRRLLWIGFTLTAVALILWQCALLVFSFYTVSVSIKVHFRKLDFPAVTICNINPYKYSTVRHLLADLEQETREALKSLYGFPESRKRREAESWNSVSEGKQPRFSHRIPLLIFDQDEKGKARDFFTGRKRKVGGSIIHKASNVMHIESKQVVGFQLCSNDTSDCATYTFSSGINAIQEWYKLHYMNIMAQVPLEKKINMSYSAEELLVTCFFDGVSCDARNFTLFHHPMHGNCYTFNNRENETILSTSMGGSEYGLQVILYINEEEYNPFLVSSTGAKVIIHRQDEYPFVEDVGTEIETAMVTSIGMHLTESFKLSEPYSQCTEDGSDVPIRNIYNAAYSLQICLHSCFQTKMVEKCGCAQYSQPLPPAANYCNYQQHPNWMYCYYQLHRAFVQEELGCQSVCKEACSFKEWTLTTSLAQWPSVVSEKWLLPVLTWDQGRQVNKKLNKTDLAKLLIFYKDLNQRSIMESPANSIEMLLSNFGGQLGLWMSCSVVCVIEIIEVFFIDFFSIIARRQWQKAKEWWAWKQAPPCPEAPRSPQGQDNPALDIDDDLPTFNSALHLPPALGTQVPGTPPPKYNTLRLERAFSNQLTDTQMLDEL
# T1 sequence (P51168 whole entry): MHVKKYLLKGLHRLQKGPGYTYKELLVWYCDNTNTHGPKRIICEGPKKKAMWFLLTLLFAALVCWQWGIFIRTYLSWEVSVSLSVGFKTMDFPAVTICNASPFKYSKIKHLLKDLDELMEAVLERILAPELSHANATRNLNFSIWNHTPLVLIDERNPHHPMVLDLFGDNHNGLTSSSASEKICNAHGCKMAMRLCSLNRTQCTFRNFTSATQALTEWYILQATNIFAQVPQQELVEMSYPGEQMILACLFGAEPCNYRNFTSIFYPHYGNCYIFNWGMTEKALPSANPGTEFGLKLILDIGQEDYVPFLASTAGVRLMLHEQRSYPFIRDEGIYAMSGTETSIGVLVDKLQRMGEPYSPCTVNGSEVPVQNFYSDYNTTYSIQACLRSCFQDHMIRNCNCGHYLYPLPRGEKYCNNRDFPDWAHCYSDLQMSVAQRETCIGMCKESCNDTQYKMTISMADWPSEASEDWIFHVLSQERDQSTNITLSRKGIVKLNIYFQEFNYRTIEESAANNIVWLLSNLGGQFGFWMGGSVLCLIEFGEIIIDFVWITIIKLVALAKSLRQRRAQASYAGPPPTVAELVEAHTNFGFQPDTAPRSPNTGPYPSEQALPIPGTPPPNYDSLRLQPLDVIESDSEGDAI
# T1 sequence (P37088 whole entry): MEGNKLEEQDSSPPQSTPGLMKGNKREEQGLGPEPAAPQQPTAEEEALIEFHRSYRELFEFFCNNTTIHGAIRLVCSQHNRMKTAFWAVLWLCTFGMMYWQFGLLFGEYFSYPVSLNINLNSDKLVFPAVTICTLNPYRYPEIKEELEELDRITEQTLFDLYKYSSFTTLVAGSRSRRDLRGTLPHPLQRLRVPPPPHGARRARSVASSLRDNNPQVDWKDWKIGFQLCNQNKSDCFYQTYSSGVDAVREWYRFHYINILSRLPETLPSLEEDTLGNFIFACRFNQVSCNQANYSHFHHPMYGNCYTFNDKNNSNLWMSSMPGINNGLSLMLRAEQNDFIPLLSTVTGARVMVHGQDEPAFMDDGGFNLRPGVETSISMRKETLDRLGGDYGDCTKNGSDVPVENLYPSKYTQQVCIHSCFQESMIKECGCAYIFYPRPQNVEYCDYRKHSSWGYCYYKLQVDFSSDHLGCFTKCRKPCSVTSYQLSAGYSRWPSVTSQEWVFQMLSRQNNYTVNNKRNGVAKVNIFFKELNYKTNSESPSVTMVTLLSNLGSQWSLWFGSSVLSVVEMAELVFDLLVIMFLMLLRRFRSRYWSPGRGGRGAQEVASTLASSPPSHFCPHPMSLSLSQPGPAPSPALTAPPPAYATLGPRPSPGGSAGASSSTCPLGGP
# Experiment: cell-based assay selective for αβγ-ENaC activity (response to sodium increase)
# Details: 75 mM increase in sodium concentration, FIG. 23B right panel
# Procedure: Production of cell lines: Each gene of interest was subcloned into an independent mammalian expression vector containing a detection tag and drug selectable marker and transfected into HEK293T and CHO cells cultured using DMEM supplemented with 50 mL fetal bovine serum, a 4 mM L-Glutamine, 10 mM Hepes pH 7.4. After 1 to 3 days cells were transferred to fresh media containing mild selective pressure for 7 to 14 days. […]
# as §1
# (§3) Finally, Chromovert® Technology was used to create a cell line for ENaC. […] One potentiator identified during HTS of proteolyzed ENaC was assessed in human sensory studies where it was confirmed to enhance the salty taste of sodium chloride, as shown in FIG. 23E.
row,Compound,effect on the response of the αβγ-ENaC cell line to a sodium increase
1,N=C(N)NC(=O)c1nc(Cl)c(N)nc1N [amiloride],inhibition of the response to a 75 mM increase in sodium concentration

# System: proteolyzed αβγ-ENaC
# Experiment: HTS of a compound library against proteolyzed ENaC cell line
# Type: cell-based
# Details: not given
# Procedure: as §2, with “The intracellular solution for sodium current recordings contained the following: 50 mM CsCl, 10 mM NaCl, 60 mM CsF, 20 mM EGTA, 10 mM Hepes, pH 7.2 (adjusted with CsOH). For transient transfection studies, Fugene 6 was used to transfect expression plasmid into cells cultured as above and cells were assayed three days post-transfection.” left out
# as §3
row,Compound,activity identified during HTS of proteolyzed αβγ-ENaC
1,"CCCc1ccc(OC(=O)c2ccco2)cc1 [STE1, 4-propylphenyl 2-furoate]",potentiator of proteolyzed αβγ-ENaC

# System: salty taste of sodium chloride
# Experiment: human sensory taste testing, pairwise comparisons
# Type: in vivo
# Details: pairwise comparisons of 45 mM NaCl+15 pg STE1/mL
# Procedure: The sensory studies used pairwise comparisons of 45 mM NaCl+15 pg STE1/mL using a human sensory taste testing protocol approved by an institutional review board, 13 out of 15 participants selected the sample containing STE1 as more salty.
row,Compound,participants who selected the sample containing STE1 as more salty
1,"CCCc1ccc(OC(=O)c2ccco2)cc1 [STE1, 4-propylphenyl 2-furoate]",13 out of 15
